According to paper PMC11513920, “Building Metabolically Stable and Potent Anti-HIV Thioether-Lipid Analogues of Tenofovir Exalidex: A thorough Pharmacological Analysis” (Journal of Medicinal Chemistry, 2024):
Values joined by “and” are separate entries in the source; they are usually repeats but may differ in a detail not shown here. Equal values may be shown once. Read-outs that look alike come from different tables or passages of the source.

Experiments:
[1] = Mouse tissue (liver, kidney, brain) pharmacokinetics after oral dose; type: in vivo, male C57BL/6 mice; settings: for TFV in brain tissue: brain, 1, 4 and 24 h after p.o. 10 mg/kg of prodrug, LLOQ 4.84 ng/mL (9.67 for 16h); for AUC(0-t) at 24 h: read-out: AUC0–24h; for concentration at 24 h / mean prodrug concentration in brain: 24 h; for mean prodrug concentration in brain: BLQ = below limit of quantitation
Description: To compare the in vivo PK profiles to TXL and our previously reported drug lead 1 (Tables S19 and S26),[39] one group of male C57BL/6 mice were administered a single oral dose (p.o., 10 mg/kg) of 2a, 16g, or 16h (refer to Experimental Methods). Additionally, a separate group of mice were given a single intravenous dose (i.v., 3 mg/kg) of each prodrug to obtain plasma clearance (Cl), volume of distribution (Vd), and oral bioavailability data. Blood was sampled at 8 time points over 8 h (i.v.) or 24 h (p.o.) postdose, and plasma was isolated via centrifugation. Tissues (liver, kidney, and brain) were also harvested and homogenized at 3 time points over 24 h after oral dose. The concentrations of prodrug and TFV metabolite in each of these samples was then quantified using LC–MS/MS methodology.
Healthy male C57BL/6 mice (8–12 weeks old) weighing 20–30 g were procured from Global, India. Three mice were housed in each cage. Temperature and humidity were maintained at 22 ± 3 °C and 30–70%, respectively, and illumination was controlled to provide for 12 h light and 12 h dark cycles. Temperature and humidity were recorded by an autocontrolled data logger system. All animals were provided a laboratory rodent diet (Envigo Research private Ltd., Hyderabad). Reverse osmosis H2O treated with ultraviolet light was provided ad libitum.
Male mice were divided into two groups (n = 18 total, n = 9 per treatment group, n = 3 per time point, sparse sampling). One group was intravenously administered a solution of 2a, 16g, and 16h in 10% PEG-300, 10% Solutol HS-15, and 80% saline at 3 mg/kg with a dosing volume of 5 mL/kg. The second group was administered a solution of 2a, 16g, and 16h in 10% EtOH and 90% olive oil at 10 mg/kg via oral gavage with a dosing volume of 10 mL/kg.
Blood samples (approximately 60 μL) were collected from retro-orbital plexus under light isoflurane anesthesia such that the samples were obtained predose, as well as at eight time points post dose: 0.1, 0.25, 0.5, 1, 2, 4, 6, and 8 (i.v.) and 0.25, 0.5, 1, 2, 4, 8, 12, and 24 h (p.o.). Immediately after blood collection, plasma samples were harvested by centrifugation at 4000 rpm and 4 °C for 10 min and stored at −70 °C until LC–MS/MS analysis. Following blood collection from p.o. group, liver, kidney, and brain samples were collected (n = 3 per treatment group per time point) at 1, 4, and 24 h post dose. After isolation, tissue samples were rinsed three times with ice-cold saline and dried with blotting paper. Next, the tissue samples were homogenized using ice-cold PBS (pH = 7.4), and the resulting homogenates were stored below −70 °C until LC-MS/MS analysis. The total homogenate volume was 3 times the brain weight and 5 times the liver and kidney weight.
Areas under the concentration–time curves (AUC0–8h and AUC0–24h) were calculated via the linear trapezoidal rule[65] using GraphPad Prism v9. Furthermore, terminal elimination rate constants k were determined using linear regression (slope = −k) of the terminal portion of semilog-transformed concentration–time curves (Figures S44, S45, S47, S48, S50, and S51).

HepaRG cells = assay: HepaRG cellular uptake; settings: for mean prodrug concentration in HepaRG cells: 20 µM; for HepaRG Cmax: 20 μM, HSA formulation 5:1, recorded after 3 h incubation
Description: (§1) Naturally, due the metabolic complexity of HepaRG cells, we specifically analyzed prodrug cellular uptake and stability, as represented by Cmax and intrinsic clearance (Clint,u) accordingly (Figure 7 and Table 9).
(§2) The HepaRG cell line (HPRGC10, Thermo Fisher Scientific) was used to evaluate the cellular permeability and metabolic stability for select final compounds in vitro. The cells were initially thawed with working media composed of HepaRG Thaw, Plate, & General Purpose Medium Supplement (HPRG670), Williams Medium E (100 mL), and GlutaMax (1 mL), all purchased from Thermo Fisher Scientific. […] After the thawing medium was aspirated from each well, the cells were cultured for an additional 6 days with working media consisting of HepaRG Maintenance/Metabolism Medium Supplement (HPRG720), Williams Medium E (500 mL), and GlutaMax (1 mL), all purchased from Thermo Fisher Scientific. Upon completing the 7-day culture period, HepaRG cells were plated in enough wells to allow for duplicate analysis of prodrugs in two independent cellular uptake or metabolic stability experiments. All studied compounds were formulated with human serum albumin (HSA, 5:1 compound to HSA molar ratio) and subsequently diluted to a 20 μM final concentration with assay medium composed of serum-free INVITROGRO HI Medium and TORPEDO Antibiotic Mix purchased from BioIVT. For cellular uptake determinations, the maintenance/metabolism medium was first aspirated from each well, and then the plated cells were spiked with 1.0 mL of test compound stock solution. Subsequently, the plate was incubated at 37 °C under 5% CO2 environment over the desired time course (seven data points/compound). Blank wells not treated with prodrug were included in assay runs as controls and initial time points (0 min). At each time point, the test compound solution was removed from the appropriate wells, and the plated cells were washed with 1.0 mL of DPBS twice. The HepaRG cells were then extracted with 500 μL of cold ISTD solution (1 μM 7-ethoxy-d5-coumarin in 70/30 MeOH/H2O), and the quenched aliquots were centrifuged at 15,000 g for 10 min at 4 °C. […] After obtaining prodrug Cmax and Tmax values from the cellular uptake assay, HepaRG metabolic stability was then assessed. Following the initial 7-day culture procedure, the maintenance/metabolism medium was aspirated from each well, and the plated cells were spiked with 1.0 mL of test compound stock solution. […] The test compound solution was then removed from each well and replaced with untreated dilution medium (i.e., serum-free INVITROGRO HI Medium and TORPEDO Antibiotic Mix), initializing the stability determination. The HepaRG plate was once more incubated at 37 °C under 5% CO2 atmosphere over the desired time course (nine data points/compound), and sample preparation and analysis were handled in identical fashion to cellular uptake experiments.

HepaRG cellular uptake = settings: human, HepaRG Cmax, 20 μM, HSA formulation 5:1, recorded after 3 h incubation
Description: as §1, §2

[2] = Human liver microsome stability; settings: for remaining at 2 h, 3 μM / half-life at 3 μM: human, microsomes; for remaining at 2 h, 3 μM: HLM % remaining, relative percent remaining of prodrug at 120 min; for half-life at 3 μM: HLM t1/2, HLM 1 mg/mL
Description: Human liver microsomes (HLMs, 20 mg/mL) and CD-1 mouse liver microsomes (MLMs, 20 mg/mL) were purchased from Xenotech. NADPH was purchased from Sigma-Aldrich and prepared in 10 mM stock solutions of distilled H2O (Invitrogen UltraPure). […] Test compounds and positive controls were initially dissolved in MeOH to make 10 mM stock solutions. Sample solutions were then further diluted in 70/30 MeOH/H2O to 500 μM. Next, the reactions were prepared by mixing human or mouse liver microsomes (55 μL) with potassium phosphate buffer (100 mM, 928 μL) in 1.5 mL Eppendorf tubes. The test compounds (6.6 μL of 500 μM solution) were subsequently added to the suspensions, and the reaction mixtures were incubated at 37 °C for 5 min. Afterward, the liver microsome reactions were initiated with 110 μL of 10 mM NADPH and further incubated at 37 °C for the designated time course of the study. […] Each test compound was run in tandem with positive and negative control experiments for quality assurance. Positive control reactions were conducted at a final volume of 550 μL for a single run of each time point.
For both LM and plasma stability assays, each data point was analyzed in duplicate using in-between blank washes to avoid carry over and to equilibrate the column for the subsequent runs. Averages of these duplicate for individual compounds at each time point were then normalized to the data at 0 min, representing 100% test compound remaining or 0% metabolism. Half-lives (t1/2) were calculated by plotting ln of % test compound remaining versus time and performing linear regression to determine slope.
Metabolic Stability Assays
Liver Microsome Stability
Liver Microsome Stability Assay Setup Example
Quenching Mixture: 100 µL MeOH with ISTD (2 µM d5-7-ethoxycoumarin).
Final Volume After Quenching: 200 µL (100 µL from reaction mixture + 100 µL quencher
solution; ISTD final concentration of 1.0 µM).

[3] = Cellular cytotoxicity (cell viability, CellTiter 96 or resazurin); settings: human, CC50, HEK293T cells, compounds formulated with HSA (5:1)
Description: Second, HIV IC50 and cellular CC50 were determined with a pseudoviral, whole (HEK293T) cell, nonreplicative HIV assay, using the HIV-1 subtype C strain MJ4 (refer to Experimental Methods). To account for the unique amphiphilic properties of TXL and the novel HTP-based prodrugs, all compounds were formulated in a human serum albumin (HSA) solution (5:1 drug:protein).
Assessment of cytotoxicity and antiviral activity of all final compounds in vitro was conducted according to previously reported procedures.[39] In summary, human embryonic kidney (HEK293T) cells maintained in high glucose (25 mM), Dulbecco’s modified Eagle’s medium (DMEM) supplemented with fetal bovine serum (10%), sodium pyruvate (1 mM), L-glutamine (2 mM), HEPES (25 mM), and gentamicin (50 μg/mL) were used for determinations. The cells were maintained in an incubator at 37 °C under 5% CO2 in a humidified atmosphere. For both cytotoxicity and antiviral screening, all compounds were evaluated in duplicate in at least two independent experiments. All final compounds were formulated with human serum albumin (HSA, 5:1 compound to HSA molar ratio) and subsequently diluted with complete DMEM to 200 μM. Fifty microliters of test compound serial dilutions (3-fold) were prepared in 96-well culture plates, after which 50 μL of HEK293T cells (2 × 10^4 cells/well) was added. […] Cytotoxicity was then assessed by quantifying cell viability using the CellTiter 96 Aqueous One Solution Cell Proliferation Assay (Promega, Madison, WI) or resazurin sodium salt (cat# R7017, Merck, Darmstadt, Germany).[61] […] Antiviral activity was then assessed using a single-cycle, nonreplicating, envelope deleted HIV pseudoviral in vitro assay.[62],[63] The assay relies on the introduction of the firefly luciferase gene into HEK293T cells through infection with HIV-like viral particles, containing Reverse Transcriptase (RT) and Integrase (IN) from the HIV-1 subtype C strain MJ4.[64] The expression of the luciferase in the cells is directly proportional to the level of infection by the HIV-like viral particles and can be used to assess the inhibition of HIV-1 RT and IN. To evaluate anti-HIV activity, 3-fold serial dilutions of all final compounds were prepared in 50 μL over the noncytotoxic concentration range (as determined from the cytotoxicity screens described above) in 96-well culture plates. HEK293T cells (2 × 10^4 cells/well) and HIV-like viral particles, standardized to produce a luminescence signal of 1 × 10^6 relative light units (RLUs) in the growth medium only control, were combined, and 50 μL was added to the wells containing serially diluted test compounds. […] The expression of luciferase was subsequently quantified by adding 100 μL of the Bright-Glo Luciferase Assay substrate (Promega, Madison, WI) to each well of the 96-well plates. After incubation at rt for 3 min, luminescence was quantified on the GloMax Explorer Multimode Microplate Reader (Promega, Madison, WI).

[4] = male, C57BL/6, mouse, brain, po, p.o. 10 mg/kg, read-out: mean prodrug concentration in brain
[5] = male, C57BL/6, mouse, kidney, po, p.o. 10 mg/kg, read-out: mean prodrug concentration in kidney
[6] = male, C57BL/6, mouse, liver, po, p.o. 10 mg/kg, read-out: mean prodrug concentration in liver
[7] = male, C57BL/6, mouse, po, brain, prodrug, p.o. 10 mg/kg
[8] = male, C57BL/6, mouse, po, kidney, prodrug, p.o. 10 mg/kg
[9] = male, C57BL/6, mouse, po, liver, prodrug, p.o. 10 mg/kg
[10] = 3 μM compound, NADPH, 37 °C, 120 min course

For `CCCCCCCCCCCCCCCCSCCCOP(=O)(O)CO[C@H](C)Cn1cnc2c(N)ncnc21.N` [2a], the “TFV in brain tissue” value [1] was “BLQ”, the concentration at 1 h [1, 4] was 43.8 ng/mL and the concentration at 4 h [1, 4] was 2.19 ng/mL. It also gave a concentration at 1 h [1, 5] of 581 ng/mL, a concentration at 4 h [1, 5] of 385 ng/mL and a concentration at 24 h [1, 5] of 44.4 ng/mL. The concentration at 1 h [1, 6] was 1250 ng/mL, the concentration at 4 h [1, 6] was 395 ng/mL and the concentration at 24 h [1, 6] was 3.95 ng/mL. For the same compound, the Cmax at 24 h [1, 7] was 43.8 ng/mL, the Tmax [1, 7] was 1 h and the AUC(0-t) at 24 h [1, 7] was 69 ng·h/mL. It also gave a Cmax at 24 h [1, 8] of 581 ng/mL, a Tmax [1, 8] of 1 h and an AUC(0-t) at 24 h [1, 8] of 5740 ng·h/mL. The Cmax at 24 h [1, 9] was 1250 ng/mL, the Tmax [1, 9] was 1 h and the AUC(0-t) at 24 h [1, 9] was 6450 ng·h/mL. For the same compound, the “mean prodrug concentration in brain” value ([1]; p.o. 10 mg/kg) was “BLQ”, the “mean prodrug concentration in HepaRG cells” value (HepaRG cells; 0.5 h) was 467.27 ng/mL and the “mean prodrug concentration in HepaRG cells” value (HepaRG cells; 1 h) was 530.17 ng/mL. For the same compound, the “mean prodrug concentration in HepaRG cells” value (HepaRG cells; 2 h) was 676.9 ng/mL, the “mean prodrug concentration in HepaRG cells” value (HepaRG cells; 3 h) was 827.97 ng/mL and the “mean prodrug concentration in HepaRG cells” value (HepaRG cells; 5 h) was 1004.64 ng/mL. For the same compound, the “mean prodrug concentration in HepaRG cells” value (HepaRG cells; 7 h) was 994.36 ng/mL, the Cmax at 3 h, 20 μM (HepaRG cellular uptake) was 828 ± 0.2 ng/mL and the “HLM t1/2” value ([2]; HLM 1 mg/mL, 3 μM compound, NADPH, 37 °C, 120 min course) was 0.7 h and 0.695 ± 0.0383 h. For the same compound, the CC50 at 48 h [3] was 50 µM.

With `C[C@H](Cn1cnc2c(N)ncnc21)OCP(=O)(O)OCCCSCCCCCCCCCCCCc1ccc(F)cc1.N` [16g] the “TFV in brain tissue” value [1] was “BLQ”, the concentration at 1 h [1, 4] was 3.24 ng/mL and the concentration at 4 h [1, 4] was 5.74 ng/mL. The concentration at 1 h [1, 5] was 310 ng/mL, the concentration at 4 h [1, 5] was 602 ng/mL and the concentration at 24 h [1, 5] was 25.4 ng/mL. The concentration at 1 h [1, 6] was 5330 ng/mL, the concentration at 4 h [1, 6] was 4810 ng/mL and the concentration at 24 h [1, 6] was 24.8 ng/mL. The Cmax at 24 h [1, 7] was 5.74 ng/mL, the AUC(0-t) at 24 h [1, 7] was 13.5 ng·h/mL and the Cmax at 24 h [1, 8] was 602 ng/mL. It also gave an AUC(0-t) at 24 h [1, 8] of 7650 ng·h/mL, a Cmax at 24 h [1, 9] of 5330 ng/mL and a Tmax [1, 9] of 1 h. The AUC(0-t) at 24 h [1, 9] was 63600 ng·h/mL, the “mean prodrug concentration in brain” value ([1]; p.o. 10 mg/kg) was “BLQ” and the “mean prodrug concentration in HepaRG cells” value (HepaRG cells; 0.5 h) was 124.04 ng/mL. For the same compound, the “mean prodrug concentration in HepaRG cells” value (HepaRG cells; 1 h) was 162.75 ng/mL, the “mean prodrug concentration in HepaRG cells” value (HepaRG cells; 2 h) was 178.18 ng/mL and the “mean prodrug concentration in HepaRG cells” value (HepaRG cells; 3 h) was 209.81 ng/mL. For the same compound, the “mean prodrug concentration in HepaRG cells” value (HepaRG cells; 5 h) was 203.98 ng/mL, the “mean prodrug concentration in HepaRG cells” value (HepaRG cells; 7 h) was 229.08 ng/mL and the “HepaRG Cmax” value (HepaRG cells) was 209.8 ± 0.2 ng/mL. The Cmax at 3 h, 20 μM (HepaRG cellular uptake) was 210 ng/mL, the remaining at 2 h, 3 μM [2] was 69% and the half-life at 3 μM [2, 10] was greater than 2 h. It also gave a CC50 at 48 h [3] greater than 100 µM.

In the case of `C[C@H](Cn1cnc2c(N)ncnc21)OCP(=O)(O)OCCCSCCCCCCCCCCCCC1CCCCC1.N` [16h], the “TFV in brain tissue” value [1] is reported as “BLQ”, the concentration at 1 h [1, 4] is reported as 16.1 ng/mL and the concentration at 4 h [1, 4] is reported as 8.39 ng/mL. The concentration at 1 h [1, 5] was 279 ng/mL, the concentration at 4 h [1, 5] was 795 ng/mL and the concentration at 24 h [1, 5] was 123 ng/mL. The concentration at 1 h [1, 6] was 1540 ng/mL, the concentration at 4 h [1, 6] was 2150 ng/mL and the concentration at 24 h [1, 6] was 32.4 ng/mL. It also gave a Cmax at 24 h [1, 7] of 16.2 ng/mL, a Tmax at 24 h [1, 7] of 1 h and an AUC(0-t) at 24 h [1, 7] of 36.8 ng·h/mL. It also gave a Cmax at 24 h [1, 8] of 795 ng/mL, an AUC(0-t) at 24 h [1, 8] of 10800 ng·h/mL and a Cmax at 24 h [1, 9] of 2150 ng/mL. For the same compound, the AUC(0-t) at 24 h [1, 9] was 27300 ng·h/mL, the “mean prodrug concentration in brain” value ([1]; p.o. 10 mg/kg) was “BLQ” and the “mean prodrug concentration in HepaRG cells” value (HepaRG cells; 0.5 h) was 896.16 ng/mL. The “mean prodrug concentration in HepaRG cells” value (HepaRG cells; 1 h) was 911.53 ng/mL, the “mean prodrug concentration in HepaRG cells” value (HepaRG cells; 2 h) was 1178.12 ng/mL and the “mean prodrug concentration in HepaRG cells” value (HepaRG cells; 3 h) was 1412.37 ng/mL. For the same compound, the “mean prodrug concentration in HepaRG cells” value (HepaRG cells; 5 h) was 1533.37 ng/mL, the “mean prodrug concentration in HepaRG cells” value (HepaRG cells; 7 h) was 1616.17 ng/mL and the “HepaRG Cmax” value (HepaRG cells) was 1412.4 ± 1.5 ng/mL. It also gave a Cmax at 3 h, 20 μM (HepaRG cellular uptake) of 1410 ng/mL, a remaining at 2 h, 3 μM [2] of 85% and a half-life at 3 μM [2, 10] greater than 2 h. It also gave a CC50 at 48 h [3] of 48 µM.
